Earlier results on one molecule are cited in article PMC8225628, “Bispecific repurposed medicines targeting the viral and immunological arms of COVID-19” (Scientific Reports, 2021).

Some results are limits rather than exact numbers.

The subject of one data set is PL^pro. Also on record: method as in PMID 32726803. The note with it: read-out: Biochemical IC50; cited from earlier work.
On the set-up of data set [1]: method as in PMID 32726803. The note with it: cited from earlier work.
Details of data set [2]: method as in PMID 32726803. The note with it: cited from earlier work. The source holds these as a separate data set.
Details of data set [3]: method as in PMID 32726803. The note with it: read-out: FFU IC50; cited from earlier work.

In the case of `Cc1ccc(N)cc1C(=O)N[C@H](C)c1cccc2ccccc12` [GRL-0617], the IC50 (as a rule, the concentration needed to halve the response being measured) in the data set with PL^pro was […]; in data set [3], more than 100 µM. Further, the Cytopathic-effect potency in data set [1] was 30 µM. Besides, in data set [2], the “Viral RNA detection potency” value is more than 50 µM.
